“Also recorded” adds a separate entry of the source.
Key:
DENV-1 replicon = assay: Luciferase reporter replicon-based screening, DENV-1; type: cell-based, DENV-1 (strain WestPac); conditions: for EC50: Dengue virus, DENV1, Huh-7, 48 h, read-out: EC50 DENV-1
Outline: (§1)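 Huh7 cells carrying Renilla luciferase/neo replicons of DENV-1 (WestPac), DENV-2 (NGC), DENV-3 (D3MY05-34640) or DENV-4 (D4MY01-22713), treated with 2-fold compound dilutions for 48 h at 37 °C in duplicate. Live-cell luciferase read; EC50 by four-parameter logistic fit.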

[1] = system: P12 resistant DENV-2 viruses (NS4B V63M or V63L); type: cell-based, DENV-2 strain NGC; conditions: after twelve rounds of selection with compound 63, selections III to VI, Huh7 cells
[2] = Cytotoxicity assay (CellTiter-Glo); type: cell-based; conditions: human, Huh7 cells stably expressing DENV-2 replicon
Outline: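 Huh7 or Huh7 replicon cells, seeded overnight at 37 °C, exposed to 2-fold serial dilutions of compound for 48 h in duplicate. Viability by CellTiter-Glo, normalised to 0.45% DMSO wells (100%); CC50 by four-parameter logistic regression.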

DENV-2 replicon = assay: Luciferase reporter replicon-based screening, DENV-2; type: cell-based, DENV-2 (New Guinea C strain, NGC); conditions: for EC50: Dengue virus, DENV2, Huh-7, 48 h, read-out: EC50 DENV-2, Huh7 cells stably expressing DENV-2 replicon, 48 h
Outline: as §1

DENV-4 replicon = assay: Luciferase reporter replicon-based screening, DENV-4; type: cell-based, DENV-4 (strain D4MY01-22713); conditions: for EC50: Dengue virus, DENV4, Huh-7, 48 h, read-out: EC50 DENV-4
Outline: as §1

DENV-3 replicon = assay: Luciferase reporter replicon-based screening, DENV-3; type: cell-based, DENV-3 (strain D3MY05-34640); conditions: for EC50: Dengue virus, DENV3, Huh-7, 48 h, read-out: EC50 DENV-3, Huh7 cells stably expressing DENV-3 replicon, 48 h
Outline: as §1

[3] = target: T1, DENV-2 viral NS4B protein (Dengue virus type 2, UniProt P14340); assay: Pull-down assay with biotinylated compounds; type: binding, DENV-2 strain NGC; conditions: lysates of DENV-2 infected Huh7 cells, streptavidin beads, Western blot
T1 construct: endogenous in cells; host or cells: Huh7 cells infected with DENV-2 strain NGC (virus-encoded protein in the lysate)
Experimental: Pull-Down Assay. 4 × 10^6 Huh7 cells were seeded in a T-75 flask. The next day, cells were infected with DENV-2 strain NGC at a MOI of 2.0 in the presence of 10 µM compound 73 or 75. Cells treated with 0.25% DMSO were used as a control. After 48 h-incubation at 37° C., cells were harvested and lysed in 500 µL lysis buffer comprising 20 mM Tris-HCL pH 7.5, 100 mM NaCl, 0.5% DDM, and EDTA-free protease inhibitor cocktail (Roche). After removing the cell debris by centrifugation at 15000 rpm for 10 min, the lysates were mixed with corresponding compound at a final concentration of 100 µM or DMSO (0.25%) prior to incubation with 80 µL Streptavidin Magnetic Beads (ThermoFisher Scientific). After incubation at 4° C. overnight with agitation, the beads were washed 5 times with PBST buffer (PBS containing 0.1% Tween 20). The beads were finally mixed with 1 × LDS sample buffer (ThermoFisher Scientific) containing 100 mM dithiothreitol (DTT, Sigma-Aldrich) and heated at 95° C. for 10 minutes to elute the bead-associated proteins. The eluates and cell lysates were loaded onto a 12% SDS-PAGE and viral NS4B proteins were detected by a mouse monoclonal antibody according to the protocol as reported previously.^56

[4] = at the concentration up to 10 µM (data not shown)

Row | Compound | EC50 (DENV-1 replicon) | increase of EC50 of resistant viruses (resistance fold vs P0 DENV-2) [1] | CC50 at 48 h [2] | EC50 (DENV-2 replicon) | EC50 (DENV-4 replicon) | EC50 (DENV-3 replicon) | activity against DENV-1 (DENV-1 replicon; [4]) | activity against DENV-4 (DENV-4 replicon; [4]) | pull down of / association with viral NS4B protein [3] | remains active against DENV-2 (DENV-2 replicon; FIG. 1B) | remains active against DENV-3 (DENV-3 replicon; FIG. 1B)
1 | C[C@@H](c1ccc(Cl)cc1)n1nnc2c1NC(=O)C[C@]21C(=O)N(CCCN(C)C)c2ccc(Cl)cc21 [Compound 63, (R)-5'-Chloro-3-((S)-1-(4-chlorophenyl)ethyl)-1'-(3-(dimethylamino)propyl)-4,6-dihydrospiro[[1,2,3]triazolo[4,5-b]pyridine-7,3'-indoline]-2',5(3H)-dione] | > 5000 nM | > 100 folds | > 10000 nM | 25 nM | > 5000 nM | 1 nM | – | – | – | – | –
2 | C[C@@H](c1ccc(Cl)cc1)n1nnc2c1N(C)C(=O)C(C)(C)[C@]21C(=O)N(C)c2ccc(Cl)cc21 [Compound 23, (S)-5'-Chloro-3-((S)-1-(4-chlorophenyl)ethyl)-1ʹ,4,6,6-tetramethyl-4,6-dihydrospiro[[1,2,3]triazolo[4,5-b]pyridine-7,3ʹ-indoline]-2ʹ,5(3H)-dione] | > 5000 nM | – | > 10000 nM | > 5000 nM | > 5000 nM | > 5000 nM | – | – | – | – | –
3 | C=CCN1C(=O)[C@]2(CC(=O)Nc3c2nnn3[C@@H](C)c2ccc(Cl)cc2)c2cc(Cl)ccc21 [Compound 18, (R)-1'-Allyl-5'-chloro-3-((S)-1-(4-chlorophenyl)ethyl)-4,6-dihydrospiro[[1,2,3]triazolo[4,5-b]pyridine-7,3ʹ-indoline]-2',5(3H)-dione] | 2100 nM | – | > 10000 nM | 38 nM | > 5000 nM | 5 nM | – | – | – | – | –
4 | C[C@@H](c1ccc(Cl)cc1)n1nnc2c1NC(=O)C[C@]21C(=O)N(Cc2ccc(Cl)c(F)c2)c2ccc(Cl)cc21 [Compound 28, (R)-5'-Chloro-1'-(4-chloro-3-fluorobenzyl)-3-((S)-1-(4-chlorophenyl)ethyl)-4,6-dihydrospiro[[1,2,3]triazolo[4,5-b]pyridine-7,3'-indoline]-2',5(3H)-dione] | 1500 nM | – | > 10000 nM | 4000 nM | 5100 nM | 290 nM | – | – | – | – | –
5 | C[C@@H](c1ccc(Cl)cc1)n1nnc2c1NC(=O)C[C@]21C(=O)N(CCC(C)(C)C)c2ccc(Cl)cc21 [Compound 16, (R)-5ʹ-Chloro-3-((S)-1-(4-chlorophenyl)ethyl)-1ʹ-(3,3-dimethylbutyl)-4,6-dihydrospiro[[1,2,3]triazolo[4,5-b]pyridine-7,3ʹ-indoline]-2ʹ,5(3H)-dione] | 1100 nM | – | > 10000 nM | 870 nM | 3900 nM | 82 nM | – | – | – | – | –
6 | C[C@@H](c1ccc(Cl)cc1)n1nnc2c1NC(=O)C[C@]21C(=O)N(CCCN2CCOCC2)c2ccc(Cl)cc21 [Compound 65, (R)-5'-Chloro-3-((S)-1-(4-chlorophenyl)ethyl)-1'-(3-morpholinopropyl)-4,6-dihydrospiro[[1,2,3]triazolo[4,5-b]pyridine-7,3'-indoline]-2',5(3H)-dione] | > 5000 nM | – | > 10000 nM | 76 nM | > 5000 nM | 5 nM | – | – | – | – | –
7 | CCCN1C(=O)[C@]2(CC(=O)Nc3c2nnn3[C@@H](C)c2ccc(Cl)cc2)c2cc(Cl)ccc21 [Compound 9, (R)-5'-Chloro-3-((S)-1-(4-chlorophenyl)ethyl)-1'-propyl-4,6-dihydrospiro[[1,2,3]triazolo[4,5-b]pyridine-7,3'-indoline]-2',5(3H)-dione] | 1900 nM | – | > 10000 nM | 71 nM | > 5000 nM | 10 nM | – | – | – | – | –
8 | C[C@@H](c1ccc(Cl)cc1)n1nnc2c1NC(=O)C[C@]21C(=O)N(CCOC(=O)CCCCCCCNC(=O)CCCC[C@@H]2SC[C@@H]3NC(=O)N[C@@H]32)c2ccc(Cl)cc21 [Compound 73, 2-((R)-5'-Chloro-3-((S)-1-(4-chlorophenyl)ethyl)-2',5-dioxo-3,4,5,6-tetrahydrospiro[[1,2,3]triazolo[4,5-b]pyridine-7,3'-indolin]-1'-yl)ethyl 8-(5-((3aS,4S,6aR)-2-oxohexahydro-1H-thieno[3,4-d]imidazol-4-yl)pentanamido)octanoate] | – | – | – | 41 nM | – | 17 nM | no significant activity | no significant activity | can pull down viral NS4B protein; also recorded: associated with DENV-2 viral NS4B protein | – | –
9 | C[C@@H](c1ccc(Cl)cc1)n1nnc2c1NC(=O)C[C@@]21C(=O)N(CCOC(=O)CCCCCCCNC(=O)CCCC[C@@H]2SC[C@@H]3NC(=O)N[C@@H]32)c2ccc(Cl)cc21 [Compound 75, 2-((S)-5'-Chloro-3-((S)-1-(4-chlorophenyl)ethyl)-2',5-dioxo-3,4,5,6-tetrahydrospiro[[1,2,3]triazolo[4,5-b]pyridine-7,3'-indolin]-1'-yl)ethyl 8-(5-((3aS,4S,6aR)-2-oxohexahydro-1H-thieno[3,4-d]imidazol-4-yl)pentanamido)octanoate] | – | – | – | – | – | – | – | – | not | not | not
10 | C[C@@H](c1ccc(Cl)cc1)n1nnc2c1NC(=O)C[C@]21C(=O)N(CCCCCCCCN(C)C)c2ccc(Cl)cc21 [Compound 69, (R)-5'-Chloro-3-((S)-1-(4-chlorophenyl)ethyl)-1'-(8-(dimethylamino)octyl)-4,6-dihydrospiro[[1,2,3]triazolo[4,5-b]pyridine-7,3'-indoline]-2',5(3H)-dione] | > 5000 nM | – | > 10000 nM | 490 nM | > 5000 nM | 42 nM | – | – | – | – | –

Source: patent US20230056205A1, “SUBSTITUTED 4,6-DIHYDROSPIRO[[1,2,3]TRIAZOLO[4,5-B]PYRIDINE-7,3'-INDOLINE]-2',5(3H)-DIONE ANALOGUES” (The Board of Regents of The University of Texas System, priority 2019, published 2023)
